Test results: patent US20130252983A1, “ACTIVATING PHOSPHORYLATION SITE ON GLUTAMINASE C” (CORNELL UNIVERSITY, priority 2010, published 2013)
Entries after “also recorded” stand apart in the source; their conditions may differ.

What was measured:
[1] = tested on: NIH 3T3 cells expressing oncogenic Dbl; test: Dbl-induced cellular transformation (focus formation, growth in low serum, soft agar); format: cell-based, mouse; details: focus formation / growth in low serum
Procedure: FIGS. 1A-E illustrate that the small molecule 968 inhibits cellular transformation. […] Cells were fixed and stained with crystal violet for counting of foci. Right: 968 was serially diluted (10, 5, 2.5, and 1.25 μM) and evaluated for its ability to inhibit focus formation. […] After 6 days, the cells were counted. 100% represents the number of Dbl-transformed cells counted in the absence of 968 (27.5×10^4 cells). Data represent the average of 3 experiments (±s.d.). […] At the indicated times, the cells were counted. Data represent the average of 3 experiments (±s.d.).
FIGS. 2A-G illustrate effects of 968 on the transforming activity of constitutively active Rho GTPases and human breast cancer cells. […] Cells were scored after 14 days and plotted as the percentage of the total number of colonies greater than 50 μm in diameter. Data represent the average of 3 experiments (±s.d.). […] Data represent the average of 3 experiments (±s.d.). […] Data represent the average of 3 experiments (±s.d.). […] After 24 hours at 37° C., the migratory cells were fixed, stained with GIEMSA, and counted. Data represent the average of 3 experiments (±s.d.). […] Data represent the average of 3 experiments (±s.d.). […] Data represent the average of 3 experiments (±s.d.). […] Data represent the average of 3 experiments (±s.d.).
FIGS. 5A-C illustrate comparative abilities of 968 and other benzo[a]phenanthridinones to inhibit the transforming activity of oncogenic Dbl and H-Ras. […] Histograms show the relative levels of Dbl-induced focus formation for the different treatments, compared to Dbl-induced focus formation measured in the presence of DMSO (i.e. solvent control). Data represent the average of 3 experiments (mean±s.d.). […] Histograms show the relative levels of Ras(G12V)-induced focus formation measured for the different treatments, compared to Ras(G12V)-induced focus formation measured in the presence of DMSO (solvent control). Data represent the average of 3 experiments (mean±s.d.). FIG. 5C NIH 3T3 cells stably expressing H-Ras(G12V) that were cultured in DMEM supplemented with 1% calf serum, with the indicated amounts of 968. After 6 days, cells are trypsinized and counted. 100% represents the number of cells counted in the absence of 968, i.e. 26×10^4 cells. Data represent the average of 3 experiments (mean±s.d.).

[2] = target: T1, mouse GAC (E. coli-expressed mouse ortholog of human GAC) (Mus musculus, UniProt D3Z7P3); test: Recombinant glutaminase activity assay; format: biochemical
T1 construct: A plasmid encoding mouse GAC (residues 128-603) was cloned into the pET28a vector; His (N, cleaved yes); made in house; host or cells: E. coli (pET28a)
T1 sequence (D3Z7P3 128-603 isoform D3Z7P3-2): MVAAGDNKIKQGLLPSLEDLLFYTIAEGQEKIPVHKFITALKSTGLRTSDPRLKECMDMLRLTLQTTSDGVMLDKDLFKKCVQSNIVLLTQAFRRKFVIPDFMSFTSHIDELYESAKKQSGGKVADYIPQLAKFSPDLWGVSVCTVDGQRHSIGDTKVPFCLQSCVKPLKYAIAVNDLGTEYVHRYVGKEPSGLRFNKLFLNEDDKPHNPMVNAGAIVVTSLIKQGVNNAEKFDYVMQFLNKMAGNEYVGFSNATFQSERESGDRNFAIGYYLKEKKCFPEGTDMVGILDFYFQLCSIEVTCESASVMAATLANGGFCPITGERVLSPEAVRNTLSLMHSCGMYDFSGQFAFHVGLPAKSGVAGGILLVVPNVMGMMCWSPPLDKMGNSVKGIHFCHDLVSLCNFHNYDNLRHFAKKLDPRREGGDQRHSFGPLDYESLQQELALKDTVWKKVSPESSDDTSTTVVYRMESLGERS
Procedure: (§1) 100%=620 moles of glutamine hydrolyzed per minute per mole of enzyme. Data represent the average of 3 experiments (±s.d.). […] Following precipitation of the beads and re-suspension, the samples were analyzed by Western blotting with anti-V5 antibody. […] Data represent the average of 3 experiments (±s.d.). […] Data represent the average of 3 experiments (±s.d.). […] Data represent the average of 3 experiments (±s.d.). FIG. 3E NIH 3T3 cells transiently expressing Dbl were assayed for focus formation in the presence of 10 μM 968 alone or together with 7 mM dimethyl α-ketoglutarate. […] 100%=680 nM glutamine hydrolyzed per minute per 10^5 cells. Data are the average of 3 experiments (±s.d.). […] 100%=750 nM glutamine hydrolyzed per minute per 10^5 cells. Data represent the average of 3 experiments (±s.d.).
The activity of the E. coli-expressed recombinant mouse ortholog of human GAC were assayed in the presence of 0 ([…]), 10 (∇) or 20 (▪) μM 968 and inorganic phosphate in the form of dipotassium hydrogen phosphate. […] The data are plotted as GA activity as function of varying concentrations of glutamine or inorganic phosphate. The data are the average of 3 experiments and are plotted as mean±SEM.
Glutaminase activity assays were performed on recombinant enzyme as previously described (Kenny et al., “Bacterial Expression, Purification and Characterization of Rat Kidney-Type Mitochondrial Glutaminase,” Protein Expr. Purif. 31:140-148 (2003), which is hereby incorporated by reference in its entirety). A plasmid encoding mouse GAC (residues 128-603) was cloned into the pET28a vector and the protein was expressed with an N-terminal histidine (His)-tag. The tag was cleaved using thrombin and the protein was further purified by anion-exchange and gel-filtration chromatography. […] The reaction mixture was incubated at room temperature for 45 minutes and the absorbance at 340 nm was recorded for each sample against a water blank. The absorbance of the sample with just the cocktail mixture was subtracted from each reading to calculate the activity of the enzyme.

[3] = target: T2, GAC phosphorylation (Mus musculus, UniProt D3Z7P3); test: 2-D gel analysis of V5-GAC phosphorylation states from treated Dbl cells; format: cell-based; details: 48 hours
T2 construct: expressed in transfected cells; host or cells: NIH 3T3 cells (stably expressing Dbl, or parental), transient transfection
T2 sequence (D3Z7P3 55-603 isoform D3Z7P3-2 limits assumed): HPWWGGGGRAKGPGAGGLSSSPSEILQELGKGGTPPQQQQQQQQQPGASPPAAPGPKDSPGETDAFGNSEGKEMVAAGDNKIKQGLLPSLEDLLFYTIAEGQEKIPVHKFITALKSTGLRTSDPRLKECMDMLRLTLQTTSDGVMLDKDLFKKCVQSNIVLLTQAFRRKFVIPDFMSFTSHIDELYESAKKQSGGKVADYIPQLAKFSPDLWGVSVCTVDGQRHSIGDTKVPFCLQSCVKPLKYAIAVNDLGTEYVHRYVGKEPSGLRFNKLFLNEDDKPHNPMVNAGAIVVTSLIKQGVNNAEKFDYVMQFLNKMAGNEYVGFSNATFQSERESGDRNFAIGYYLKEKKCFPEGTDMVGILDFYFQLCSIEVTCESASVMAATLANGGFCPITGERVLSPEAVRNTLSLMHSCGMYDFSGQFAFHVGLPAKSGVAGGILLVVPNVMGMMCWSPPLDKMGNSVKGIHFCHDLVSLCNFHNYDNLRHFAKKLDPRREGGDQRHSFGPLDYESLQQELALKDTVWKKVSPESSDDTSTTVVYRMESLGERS
Procedure: NIH 3T3 cells stably expressing the Dbl oncogene, were transiently transfected with DNA encoding a VS-tagged GAC, and then one sample was treated with 968 (10 μM) for 48 hours. The cells were then harvested and the ectopically expressed GAC was isolated by immunoprecipitation via the V5 tag. The samples were then subjected to 2-D gel analysis to separate the V5-GAC by charge and size, and the V5-tagged GAC was visualized by Western blotting using an anti-V5 antibody.
GAC runs distinctly on a 2D gel depending whether it is expressed in normal (untransformed) NIH 3T3 cells or in NIH 3T3 cells which are transformed by the Dbl oncogene. Specifically, there is one major species of GAC present in NIH 3T3 cells whereas in Dbl cells, two additional species of GAC appear which migrate with a more negative charge but at the same molecular mass as the original species (FIG. 21, first and second panels). […] Additionally, it has been shown that small molecules of the 968 family which are able to inhibit GAC in vivo do so by blocking the ability of GAC to become phosphorylated. Thus, it was of great interest to identify the amino acid(s) on GAC whose phosphorylation is causal in the activation of this enzyme.

[4] = tested on: GA activity of SKBR3 cells; test: GA activity in mitochondrial fractions of treated SKBR3 cells; format: cell-based, human; details: 2 μM
Procedure: as §1
(§2) FIGS. 4A-E illustrate the role of glutaminase C activity in cellular transformation. […] Data represent the average of 3 experiments (±s.d.). […] Data represent the average of 3 experiments (±s.d.). […] 100% represents the activity measured in untreated Dbl-transformed cells. The data represent the average of 2 experiments. […] 100% represents the activity measured in untreated SKBR3 cells. The data represent the average of 2 experiments. […] Data represent the average of 3 experiments (±s.d.).
FIGS. 11A-E illustrate the effects of different treatments on GA activity. […] The addition of Pi stimulated the GA activity in control 3T3 cells, Dbl-expressing cells, and Cdc42(F28L)-expressing cells by ˜6-fold, 2-fold, and 3-fold, respectively. 100% represents the Pi-stimulated activity measured for Dbl-transformed cells that were not treated with 968. Data is the average of 3 experiments (±s.d.). […] The addition of Pi stimulated the GA activity of HMECs, MDA-MB231 cells, and SKBR3 cells by ˜5-fold, 2-fold, and 1.4-fold, respectively. […] The data are plotted as the percentage of GA activity measured for untreated SKBR3 cells and represent the average of 2 experiments. […] 100% represents the Pi-stimulated activity measured for untreated Dbl-transformed cells. […]

[5] = target: T3, GA activity of NIH 3T3 cells stably expressing Dbl or Cdc42(F28L) (Mus musculus, UniProt D3Z7P3); test: GA activity in mitochondrial fractions of treated transformed NIH 3T3 cells; format: cell-based
T3 construct: endogenous in cells; host or cells: NIH 3T3 cells stably expressing Dbl or Cdc42(F28L); mitochondrial fraction
T3 sequence (D3Z7P3 55-603 isoform D3Z7P3-2): T2 sequence (D3Z7P3 55-603 isoform D3Z7P3-2 limits assumed)
Procedure: as §1, §2
FIGS. 11A-E illustrate the effects of different treatments on GA activity. […] The addition of Pi stimulated the GA activity in control 3T3 cells, Dbl-expressing cells, and Cdc42(F28L)-expressing cells by ˜6-fold, 2-fold, and 3-fold, respectively. 100% represents the Pi-stimulated activity measured for Dbl-transformed cells that were not treated with 968. Data is the average of 3 experiments (±s.d.). […] The addition of Pi stimulated the GA activity of HMECs, MDA-MB231 cells, and SKBR3 cells by ˜5-fold, 2-fold, and 1.4-fold, respectively. 100% represents the Pi-stimulated activity for SKBR3 cells that were not treated with 968. Data are the average of 3 experiments (±s.d.). […] Mitochondrial fractions were prepared from equal numbers of cells and assayed for GA activity in the presence or absence of 133 mM Pi. The data are plotted as the percentage of GA activity measured for untreated SKBR3 cells and represent the average of 2 experiments. […] 100% represents the Pi-stimulated activity measured for untreated Dbl-transformed cells. The data represent the average of 2 experiments. […] 100% represents the Pi-stimulated activity for untreated SKBR3 cells. The data represent the average of 2 experiments.
Dbl expressing NIH 3T3 cells were treated for 48 hours in the presence or absence of 968 (10 μM), Bay 11-7082 (2 μM) or Rapamycin (100 nM). Mitochondria were then isolated from the treated cells and assayed for glutaminase activity in the absence or presence of phosphate.
Mitochondrial preparations were obtained using the mitochondria isolation kit from QIAGEN (Cat #37612). A suspension containing 2×10^7 cells was transferred into a 50 ml conical tube and centrifuged at 500×g for 10 minutes at 4° C. The pellets were resuspended in 2 ml of ice-cold lysis buffer (supplied by QIAGEN) and incubated for 10 minutes at 4° C. using an end-over-end shaker. The lysates were centrifuged at 1000×g for 10 minutes at 4° C., and the pellets were resuspended in a buffer supplied by the manufacturer and disrupted completely by using a blunt-ended, 23-gauge needle and a syringe, followed by centrifugation at 6000×g for 20 minutes at 4° C. […]

SMILES	blocking of Dbl-induced transformation [1]	inhibition of enzymatic activity of purified mouse GAC [2]	most negative migrating major species of GAC on 2D gel [3]	basal (phosphate-independent) GA activity [4]	direct stimulation of the enzyme by phosphate (Pi-stimulated GA activity) [4]	mitochondrial glutaminase activity ([5]; Dbl expressing NIH 3T3 cells, 48 hours, Bay 11-7082 (2 μM), Rapamycin (100 nM))	direct stimulation of the enzyme by phosphate (Pi-stimulated GA activity) ([5]; Dbl-transformed cells, 2 μM)	basal (phosphate-independent) GA activity ([5]; Dbl-transformed cells, 2 μM, 2 days)
CC1(C)CC(=O)C2=C(C1)c1c(ccc3ccccc13)NC2c1cccc(Br)c1 (centres unmarked) [Compound 335]	little or no inhibition; also recorded: less effective at blocking Dbl-transformation	little ability to inhibit enzyme activity						
CC(C)(C)c1ccc(S(=O)(=O)/C=C/C#N)cc1 [BAY 11-7082, E3((4-t-butylphenyl)-sulfonyl)-2-propenenitrile]			loss of the most negative migrating major species of GAC	significantly reduces their basal GA activity	little or no effect	significant loss of glutaminase activity	little or no effect	significantly reduces their basal GA activity
